The structures appear in SMILES notation. Bounds are passed on as bounds.

Test [1] relates to MDA-MB-435. Kind of test: Antiproliferative activity against human MDA-MB-435 cells. Format: functional, cell-based.
Test [2] relates to MDA-MB-231. The test is described as follows: Antiproliferative activity against human MDA-MB-231 cells. Type of test: functional, cell-based.
Test [3] deals with MDA-MB-231. The test is described as follows: Antiproliferative activity against human MDA-MB-231 cells after 72 hrs by CellTiter 96 AQueous One Solution Cell Proliferation assay. Format: functional, cell-based. Particulars: MDA-MB-231, 72 h.
Test [4] can be described thus: Antiproliferative activity against human CCD-112CoN cells after 72 hrs by SRB assay. Type of test: functional, cell-based. In general terms: Sulforhodamine B stains cellular protein and so reports cell mass.
The test system of test [5] is A2780. Kind of test: Antiproliferative activity against human A2780 cells. Format: functional, cell-based.
For test [6], the system named is MCF7. The test is described as follows: Antiproliferative activity against human MCF7 cells. Format: functional, cell-based.
The subject of test [7] is HT-29. The test is described as follows: Antiproliferative activity against human HT-29 cells after 72 hrs by CellTiter 96 AQueous One Solution Cell Proliferation assay. Format: functional, cell-based. Particulars: HT-29, 72 h.
Another test has as its system OVCAR-3. Kind of test: Antiproliferative activity against human OVCAR-3 cells after 72 hrs by CellTiter 96 AQueous One Solution Cell Proliferation assay. Type of test: functional, cell-based. As to conditions: OVCAR-3, 72 h.
For test [8], the system named is MDA-MB-435. Kind of test: Antiproliferative activity against human MDA-MB-435 cells after 72 hrs by CellTiter 96 AQueous One Solution Cell Proliferation assay. Type of test: functional, cell-based. Particulars: MDA-MB-435, 72 h.
The target in another test is 20S proteasome. The test is described as follows: Inhibition of chymotrypsin-like activity of human erythrocytes 20S proteasome using Suc-LLVY-AMC as substrate and measured by fluorescence assay.
In test [9] the test system is HT-29. Kind of test: Antiproliferative activity against human HT-29 cells after 3 days by SRB assay. Format: functional, cell-based. Particulars: HT-29, 72 h.
Test [10] in a line: Antiproliferative activity against human PC-3 cells after 3 days by SRB assay. Format: functional, cell-based.
In test [11] the test system is MCF7. The test is described as follows: Antiproliferative activity against human MCF7 cells by SRB assay. Format: functional, cell-based.
In test [12] the test system is A2780. The test is described as follows: Antiproliferative activity against human A2780 cells by SRB assay. Type of test: functional, cell-based.

One may read the IC50 as the concentration that gives 50% inhibition. Read a high IC50 as a need for much substance. `CCCC[C@H]1CCCC[C@H](C)[C@@H](O[C@H]2OC[C@@H](O)[C@@H](O)[C@H]2O)c2cc(O)c(c(O)c2)[C@@H](CCCC)CCCC[C@H](C)[C@@H](O[C@@H]2OC[C@@H](O)[C@@H](O)[C@H]2O)c2cc(O)c1c(O)c2`: the IC50 with MDA-MB-435 [1] and with MDA-MB-231 [2] was 600 nM throughout. Regarding `C[C@@H]1CCCCC[C@H](CCCCO)c2c(O)cc(cc2O)[C@H](C)CCCCC[C@H](CCCO)c2c(O)cc1cc2O`, in the test with MDA-MB-231 [3], the IC50 was determined as 1000 nM. Consider `C[C@H]1O[C@@H](O[C@H]2CC[C@]3(C)[C@H]4CC[C@]5(C)[C@@H](C6=CC(=O)OC6)CC[C@]5(O)[C@@H]4CC[C@]3(O)C2)C[C@H](O)[C@@H]1O[C@@H]1O[C@H](CO)[C@@H](O)[C@H](O)[C@H]1O`, for which the IC50 in [4] turned out to be 2700 nM. This counts as single-digit micromolar. As for `CCCC[C@H]1CCCC[C@H](C)[C@@H](O)c2cc(O)c(c(O)c2)[C@@H](CCCC)CCCC[C@H](C)[C@@H](O[C@@H]2OC[C@@H](O)[C@@H](O)[C@H]2O)c2cc(O)c1c(O)c2`, the 50% inhibitory concentration (IC50) with MDA-MB-435 [1] and with MDA-MB-231 [2] was 600 nM each time.

For `CC(=O)C1=C(O)C=C2Oc3c(C(C)=O)c(O)c(C)c(O)c3C2(C)C1=O` (stereo not drawn), the IC50 was 3.8 µM with A2780 [5] and 6.8 µM in the test with MCF7 [6]. In the test with MDA-MB-231 [3], `CCCC[C@H]1CCCCC[C@@H](C)c2cc(O)c(c(O)c2)[C@@H](CCC)CCCCC[C@@H](C)c2cc(O)c1c(O)c2` had an IC50 of 1000 nM. That is a single-digit micromolar value.

Turning to `CO[C@H]1[C@H](O[C@H]2CC[C@]3(C=O)[C@H]4CC[C@]5(C)[C@](O)(C6=CC(=O)OC6)CC[C@]5(O)[C@@H]4CC[C@]3(O)C2)O[C@H](C)[C@H](O)[C@@H]1OC`, the IC50 with HT-29 [7], with OVCAR-3 and in the test on MDA-MB-435 [8] was above 10 µM throughout. In the case of `CC[C@H](C)[C@@H]1NC(=O)[C@@H](CCC(N)=O)NC(=O)CNC(=O)[C@H](Cc2ccc(O)cc2)/N=C\[C@H](CC(C)C)NC(=O)[C@H](C(C)C)NC(=O)[C@H](CO)NC1=O`, the IC50 at 20S proteasome came to 96 nM. This counts as double-digit nanomolar. For `COc1ccc([C@@]23Oc4cc5c(c(OC)c4[C@]2(O)[C@H](O)[C@H](C(N)=O)[C@H]3c2ccccc2)[C@H]2OC[C@H]([C@H](O)CO)O[C@H]2O5)cc1`, the IC50 with HT-29 [9] is above 10000 nM; in [10], above 10 µM. For `CCCCC(Cl)CCCC[C@H](C)[C@@H](O[C@@H]1OC[C@@H](O)[C@@H](O)[C@H]1O)c1cc(O)c([C@@H](CCCC)CCCC[C@H](O)[C@@H](OC(C)=O)c2cc(O)cc(O)c2)c(O)c1` (stereo partly drawn), the IC50 with MDA-MB-435 [1] and in the test with MDA-MB-231 [2] was above 25000 nM in each case. Regarding `COc1ccc([C@@]23Oc4cc(OC)cc(OC)c4[C@]2(O)[C@H](O)[C@H](C(N)=O)[C@H]3c2ccccc2)cc1` [DIDESMETHYLROCAGLAMIDE], 21 nM corresponded to half-maximal inhibition in the test with HT-29 [9] (IC50).

Regarding `CCCC[C@H]1CCCC[C@H](C)Cc2cc(O)c(c(O)c2)[C@@H](CCCC)CCCC[C@H](C)[C@@H](O[C@@H]2OC[C@@H](O)[C@@H](O)[C@H]2O)c2cc(O)c1c(O)c2`, the IC50 in the test with MDA-MB-435 [1] and in the test with MDA-MB-231 [2] was 600 nM throughout. As for `CCC[C@H]1CCCCC[C@@H](C)c2cc(O)c(c(O)c2)[C@@H](CCCCO)CCCCC[C@@H](C)c2cc(O)c1c(O)c2`, in the test with MDA-MB-231 [3], the IC50 amounted to 1000 nM. In the case of `COc1cc(=O)oc(/C=C/C=C/C=C/C(C)=C/[C@]2(C)O[C@H](C)[C@](C)(O)[C@@H]2O)c1C`, the 50% inhibitory concentration (IC50) with MCF7 [11] was 6 µM; in the test with A2780 [12] it was 8.2 µM.

The values above are taken from ChEMBL document CHEMBL5120768, “Discovery of Anticancer Agents of Diverse Natural Origin” (J Nat Prod, 2022).
